This is an account of results in US9376449B2, “Indole carboxamide derivative” (Astellas Pharma Inc., priority 2012, dated 2016).

For orientation: Emax means the greatest response seen or fitted, relative to the assay's reference. As a reminder, the EC50 is the concentration giving half of the maximal effect. A high value points to weaker potency.

Like-named read-outs stand apart in the source and are kept apart here.

For one assay, the target named is human MT1 receptor (Homo sapiens, UniProt P48039). Briefly: Activation of human MT1 receptor in receptor-expressing HEK293 cells (intracellular Ca2+, FLIPR). In kind it is cell-based. The conditions noted are these: for EC50: HEK293 cells stably expressing human MT1 and Gq/i chimeric G-protein, intracellular Ca2+ by FLIPR. On the procedure:
(§1) (1) Isolation of Human MT1 and MT2 Receptor and Construction of Expression Vector
(§2) A human MT1 receptor gene (GenBank Accession No.: NM_005958.3) and a human MT2 receptor gene (GenBank Accession No.: NM_005959.3) were each introduced into an expression vector pCDNA3.1/Zeo (Invitrogen, Inc.).
(§3) (2) Construction of Cells Stably Expressing Human MT1 and Human MT2 Receptor
(§4) The introduction was carried out according to the attached instructions, using a Lipofectoamine (registered trademark) 2000 Reagent (Invitrogen, Inc.). Zeocin and hygromycin were used as a resistant drug, and the cell was incubated for 15 days at 0.02 mg/mL and 0.05 mg/mL, respectively, thereby acquiring drug-resistant clones.
(§5) (3) Measurement of Intracellular Ca^2+ Concentration by FLIPR (Registered Trademark)
(§6) The respective stably expressing cells were dispensed into 96-well poly-D-lysine-coated plates (Falcon Co.) to 40,000 cells/well the day before the experiment, and incubated overnight in a DMEM (Invitrogen, Inc.) medium including 10% FBS at 37° C. and 5% CO2. The medium was replaced with a loading buffer (washing solution (Hank's balanced salt solution (HBSS), 20 mM HEPES-NaOH, 2.5 mM probenecid) including Fluo-4AM (Dojindo Co.) at 4 μM), and incubated for 1 hour at 37° C. and 5% CO2. Thereafter, the cells were washed with a plate washer (ELx405, BIO-TEK Instrument, Inc.) set with the washing solution, and set in an intracellular Ca^2+ concentration measuring systems (FLIPR (registered trademark), Molecular Device Co.). The test compound was dissolved in the washing solution in advance, diluted to a final concentration of −12 to −5 log M, set in a FLIPR (registered trademark) device together with the cells, and added to the cells in the device. At this time, a change in the intracellular Ca^2+ concentrations was measured.
(§7) Ex represents Example No. of the test compound.

Another assay deals with T1, human MT2 receptor (Homo sapiens, UniProt P49286).
T1 sequence (P49286 1-362): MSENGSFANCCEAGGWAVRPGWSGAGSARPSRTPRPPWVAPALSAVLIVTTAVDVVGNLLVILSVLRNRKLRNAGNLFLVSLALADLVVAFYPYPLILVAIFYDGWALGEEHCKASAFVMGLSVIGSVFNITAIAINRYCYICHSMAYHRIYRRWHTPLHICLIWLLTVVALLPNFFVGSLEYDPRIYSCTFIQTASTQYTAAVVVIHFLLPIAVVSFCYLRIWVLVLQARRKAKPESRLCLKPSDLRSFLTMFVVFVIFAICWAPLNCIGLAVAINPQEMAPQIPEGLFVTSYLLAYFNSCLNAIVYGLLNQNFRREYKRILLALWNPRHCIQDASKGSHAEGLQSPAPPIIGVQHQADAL
Briefly: Activation of human MT2 receptor in receptor-expressing HEK293 cells (intracellular Ca2+, FLIPR). Type of assay: cell-based. The settings on record: for Emax: HEK293, maximum reaction by ramelteon taken as 100%, solvent only 0%; for EC50: HEK293 cells stably expressing human MT2 and Gq/i chimeric G-protein, intracellular Ca2+ by FLIPR. The protocol: as §1, §2, §3, §4, §5, §6, §7

Assay [1] relates to isolated urethra. Briefly: Isolated urethra contractile action. Also noted: species or system rat. The settings on record: test compound at 1 μM; contractile response by 10 μM phenylephrine as 100%; SD female rat urethra; read-out: Isolated urethra contraction (%). On the procedure:
Test Example 2 Isolated Urethra Contractile Action
(1) Evaluation Test on Urethra Contractile Action of Test Compound Using Isolated Urethra
The urethra was isolated from an SD female rat having a body weight of 100 to 500 g. The isolated urethra was incised longitudinally to give a rectangular strip specimen having a width of about 3 mm, which was suspended in the circular muscle direction in 10 mL of a tissue bath filled with a Krebs-Henseleit solution (pH 7.4). The Krebs-Henseleit solution was bubbled with 95% O2 and 5% CO2, and kept at 37° C. The resting tension was set to 0.5 g to record the isometric contraction. After the resting tension was stabilized, contraction was elicited by the addition of 10 μM phenylephrine. After washing and stabilizing, the test compound was added cumulatively to a final concentration of −12 to −5 log M to measure a contractile response. By taking the contractile response by 10 μM phenylephrine as 100%, the ratio of the contractile response in the concentration of the test compound at 1 μM was calculated.
as §7

The test system of another assay is urethral pressure. In words: Effect of test compound on urethral pressure in anesthetized rats. The settings on record: urethane-anesthetized SD female rats. Type of assay: in vivo, rat. An excerpt:
Test Example 3 Test to Evaluate Effect of Test Compound on Urethral Pressure
It has been reported that an increase in the urethra pressure is useful for the treatment of urinary incontinence, particularly stress urinary incontinence (for example, Drugs, 64, 14, 1503-1516 (2004)). In order to confirm whether the compound of the present invention increases the urethra pressure and thus is useful for the treatment of urinary incontinence, particularly stress urinary incontinence, the following tests were carried out.
SD female rats were anesthetized with urethane and subjected to laparotomy. Then, the bladder apex was incised and a catheter was inserted from the bladder apex. Further, the catheter tip was ligated and fixed to be located in the proximal urethra portion. The catheter was connected to a pressure transducer and an infusion pump. Further, a catheter for administrating the compound was fitted into the femoral vein. Physiological saline was continuously infused into the urethra and the perfusion pressure in the urethra was measured. After the urethral pressure was stabilized, the test compound that had been dissolved in physiological saline, or physiological saline including 5% dimethylacetamide and 0.5% Cremophor was administered intravenously at 0.1 mg/kg, and a change in urethral pressures was measured.
Further, the results of administering an active metabolite of midodrine (ST-1059: purchased from CHEMIZON) (J. Urology, 118, 980-982 (1977)) which is an α1 adrenoceptor agonist and has an effect on stress urinary incontinence in rat doses (0.01 mg/kg) presumed to correspond to the clinical doses are referenced and shown in the Tables below. The increment value in the urethra pressures of ramelteon and the Example compounds of the present invention at the time of administration are shown in Table 4. Ex represents Example No. of the test compound.

The test system of assay [2] is isolated urethra. Briefly: Test confirming that urethra contractile action by ramelteon is through MT1 and/or MT2 receptor (Luzindole). Also noted: species or system rat. The settings on record: for Second contractile rate by ramelteon (%): 20 minutes before ramelteon 1 μM, first contraction as 100%. On the procedure: (2) Test for Confirming that Urethra Contractile Action is Action Through MT1 and/or MT2 Receptor
The urethra was isolated from an SD female rat having a body weight of 100 to 500 g. The isolated urethra was incised longitudinally to give a rectangular strip specimen having a width of about 3 mm, which was suspended in the muscle parallel to the circular to 10 mL of a tissue bath filled with a Krebs-Henseleit solution (pH 7.4). […] The resting tension was set to 0.5 g to record the isometric contraction. After the resting tension was stabilized, contraction was elicited by the addition of 10 μM phenylephrine. After washing and stabilizing, the test compound (ramelteon) at 1 μM was added to measure a contractile response. After washing and stabilizing, a solvent or Luzindole (purchased from Wako Pure Chemical Industries, Ltd.) (0.1 μM, 1 μM, or 10 μM) was added to the same specimen, and after 20 minutes, ramelteon at 1 μM was added again thereto to measure a contractile reaction. When the first contraction by ramelteon at 1 μM was taken as 100%, the second contractile rate by ramelteon was measured.

Setting [3] is: HEK293, maximum reaction by ramelteon taken as 100%, solvent only 0%, read-out: MT1 Emax (%).

human MT1 receptor, sequence (P48039 whole entry): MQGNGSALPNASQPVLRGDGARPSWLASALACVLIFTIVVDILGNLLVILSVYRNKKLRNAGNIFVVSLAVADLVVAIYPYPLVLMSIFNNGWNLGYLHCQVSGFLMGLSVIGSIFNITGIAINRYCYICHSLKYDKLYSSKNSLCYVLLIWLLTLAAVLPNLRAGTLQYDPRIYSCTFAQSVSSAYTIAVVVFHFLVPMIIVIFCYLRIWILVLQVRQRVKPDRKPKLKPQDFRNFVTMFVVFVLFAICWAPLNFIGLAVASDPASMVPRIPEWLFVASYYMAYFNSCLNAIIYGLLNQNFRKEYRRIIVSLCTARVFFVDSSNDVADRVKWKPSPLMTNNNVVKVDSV

Take `CCCC(=O)NCCc1c(C(=O)NC)[nH]c2cc(F)c(OC)cc12` [Ex 35]: the Emax came out at 110% at human MT1 receptor (setting [3]) and 102% at human MT2 receptor. For the same molecule, the values for the EC50 at human MT1 receptor and on human MT2 receptor were 3.2 nM and 11 nM, respectively. Moreover, the activation at 1 µM in the assay with isolated urethra [1] is 171%. For the same molecule, the “Increment value in the urethra pressures (mmHg)” value (shortened to “Increment value”) with urethral pressure (0.1 mg/kg intravenously) is 8.2 ± 1.6 mmHg.
For `COc1ccc2[nH]cc(CCNC(C)=O)c2c1` [Melatonin, melatonin, reference compound], on human MT1 receptor (HEK293, read-out: MT1 Emax (%)), the Emax was 94%.
On to `CCC(=O)NCCc1c(C(=O)NC)[nH]c2cc(F)c(OC)cc12` [Ex 36], for which the Emax at human MT1 receptor (setting [3]) was determined as 121%; at human MT2 receptor it was 104%. In addition, the EC50 was 10 nM on human MT1 receptor and 18 nM on human MT2 receptor. The activation at 1 µM with isolated urethra [1] came to 107%. The “Increment value” value in the assay with urethral pressure (0.1 mg/kg intravenously) was 7.3 ± 0.2 mmHg.
In the case of `CCCC(=O)NCCc1c(C(=O)NC)[nH]c2cc(Cl)c(OC)cc12` [Ex 34, 3-[2-(butyrylamino)ethyl]-6-chloro-5-methoxy-N-methyl-1H-indole-2-carboxamide], the Emax worked out at 75% at human MT1 receptor (setting [3]) and 92% on human MT2 receptor. Moreover, the EC50 at human MT1 receptor was determined as 32 nM; at human MT2 receptor, 4.4 nM.
Take `CNC(=O)c1[nH]c2cc(Cl)c(OC)cc2c1CCNC(C)=O` [Ex 12, 3-(2-acetamidoethyl)-6-chloro-5-methoxy-N-methyl-1H-indole-2-carboxamide]: the Emax at human MT1 receptor (setting [3]) amounted to 68%; on human MT2 receptor, 70%. In addition, the EC50 at human MT1 receptor came out at 86 nM; at human MT2 receptor, 12 nM.
Consider `CC(=O)NCCc1c(Cc2ccccc2)[nH]c2ccccc12` [Luzindole], for which the “Second contractile rate by ramelteon (%)” value in the assay with isolated urethra [2] (Luzindole 0.1 μM) is reported as 88 ± 11%; in the assay on isolated urethra [2] (Luzindole 1 μM), 75 ± 5%; in the assay with isolated urethra [2] (Luzindole 10 μM), 61 ± 9%. In the assay with isolated urethra [2] (treatment with Luzindole 0.1-10 μM, in words), the “inhibition of isolated urethra contractile action by ramelteon” value was “inhibited in a concentration-dependent manner”.
As for `CCCC(=O)NCCc1c(C(=O)NC)[nH]c2ccc(OC)cc12` [Ex 32], the Emax on human MT1 receptor (setting [3]) came to 106%; on human MT2 receptor, 111%. For the same molecule, the EC50 came to 7.7 nM at human MT1 receptor and 31 nM on human MT2 receptor. In addition, the activation at 1 µM in the assay with isolated urethra [1] came out at 143%. Moreover, the “Increment value” value in the assay with urethral pressure (0.1 mg/kg intravenously) is 10.8 ± 2.9 mmHg.
With `COc1ccc(OC)c(C(O)CN)c1` (stereo not drawn) [ST-1059, reference compound], the “Increment value” value in the assay with urethral pressure (0.01 mg/kg (rat dose presumed to correspond to clinical dose)) was 4.9 ± 1.1 mmHg.
Regarding `CNC(=O)c1[nH]c2c(F)cc(OC)cc2c1CCNC(=O)C(F)F` [Ex 53], the values for the Emax at human MT1 receptor (setting [3]) and on human MT2 receptor were 103% and 105%, respectively. Besides, the figures for the EC50 on human MT1 receptor and at human MT2 receptor were 19 nM and 9.2 nM, respectively. In the assay on urethral pressure (0.1 mg/kg intravenously), the “Increment value” value was determined as 10.5 ± 0.6 mmHg.
Taken in the same sequence, the figures for `CNC(=O)c1[nH]c2ccc(OC)nc2c1CCNC(=O)C(F)F` [Ex 48] were 122%, 109%, 12 nM, 43 nM and 7.3 ± 0.7 mmHg.
